Reference: a melting point compilation (Tetko et al.; mined from patent text by program, amines drawn as free bases though some values may be those of a salt)

SMILES	melting point [°C]
COc1cc2c(c3c1OC(C)(C)C3)C(c1cccc(SCC(N)=O)c1)=NC(C)(C)C2	118 to 120
COC(=O)c1ccccc1-c1ccc(OC)cn1	130 to 132
CC(C)(C)NC(=O)C1CC(Cl)CN1C(=O)C(O)C(Cc1ccccc1)NC(=O)C(CC(N)=O)NC(=O)C(COC1CCCO1)NC(=O)OCc1ccccc1 (stereo unspecified)	64 to 71
Nc1nc(N)c(CCCc2cccc3ccccc23)c(N)n1	181 to 183
CCCCc1cc(OCCc2ccc(C(=O)O)cc2)c2ccccc2n1	205
Cc1csc(C(=O)OC(C)C)c1S(N)(=O)=O	76
CC(C)(Oc1ccc2c(-c3ccc(Cl)cc3)noc2c1)C(=O)O	132
CCOC(=O)N1CCc2c([nH]c3ccc(Cl)cc23)C1C1(C(N)=O)CCC1 (stereo unspecified)	200 to 220
COc1ccc(-c2c(S(C)(=O)=O)ccc(C(=O)c3cnn(C(C)(C)C)c3OC(C)=O)c2C)cc1	160 to 163
O=c1nc(N(Cc2ccccc2)c2ccccc2)sc2ncccc12	137 to 138
O=[N+]([O-])c1ccc2nnn(OS(=O)(=O)c3ccccc3)c2c1	122 to 124
COc1cc2c(cc1OC)C(C=Cc1ccc([N+](=O)[O-])cc1)=NN(C(C)=O)C(C)C2 (stereo unspecified)	182 to 184
CNCC(O)c1cc(C(F)(F)F)nc2c(C(F)(F)F)cccc12 (stereo unspecified)	158
Cc1cccnc1-c1cccc(OC2SCC(O)C(O)C2O)c1 (stereo unspecified)	97 to 109
c1ccc2c(c1)OCCc1c-2n(CCN2CCCCC2)c2ccccc12	103
O=C1Nc2cc(C(F)(F)F)ccc2C1(O)c1cc(Cl)ccc1O (stereo unspecified)	198 to 200
CCCOc1ccc(S(=O)(=O)N2CCCC(C(=O)OCC)C2)cc1-c1nc2cc(Cl)c([N+](=O)[O-])cc2c(=O)[nH]1 (stereo unspecified)	196 to 197
COc1ccc2c(c1)Sc1nccnc1N2	210 to 211
Cc1c(NC(=O)c2ccc(-c3cc4ccccc4s3)cc2)ccc2cc(CN3CCCC3)cnc12	217 to 218
CCn1ccnc1S(N)(=O)=O	123 to 125
CCCCCCCCCc1ccc2c(c1)C1(O)C(=O)c3ccccc3C1(O)O2 (stereo unspecified)	108 to 110
COC(=O)c1ccc(=O)n(N)c1	136 to 137
CC(C)C(=O)O[C@@H]1C[C@H](C(=O)Nc2ccc(N3CCOCC3=O)cc2)N(C(=O)Nc2ccc(Cl)cc2)C1	129
CC(C)(CO)Nc1nc(-c2ccccc2)nc2ccccc12	136 to 138
Cc1cccc(-n2nc3c(c2-c2cc4cnccc4s2)CCC3)n1	146 to 148
COc1nc(C(F)(F)C(F)(F)F)cc(=O)n1-c1cc(OC(C)C)c(Cl)cc1F	79 to 81

SMILES	melting point [°C]
CC(=O)Nc1cc(O)ccc1/C=C/c1ccc(O)cc1	227 to 229
CCSc1nn2ccccc2c1C(C)=O	84 to 85
O=C(NNC1=NS(=O)(=O)c2ccccc21)c1ccncc1	288 to 289
N#Cc1cc2c(c(C(=O)O)c1-c1ccccc1)NCCC2C(=O)O (stereo unspecified)	231 to 232
COc1ncccc1NC(=O)[C@H]1[C@H](c2ccc(S(N)(=O)=O)cc2)C1(C)C (relative stereo)	216 to 218
Cc1cccc(C(=O)Nc2nc(=O)n(C3OC(C)C(O)C3O)cc2F)c1 (stereo unspecified)	146 to 148
CCOC(=O)Cc1c(C(=O)O)c(CC)c(C(=O)c2ccc(Cl)cc2)n1C	184 to 186
Cc1oncc1C(=O)N1CCSCC1	64.5 to 65
O=C(CC(O)(Cn1cncn1)c1ccc(Cl)cc1Cl)N1CC1 (stereo unspecified)	151 to 153
CC(C(=O)O)c1ccc(-c2ccc(Br)cc2)c(F)c1 (stereo unspecified)	133 to 135
O=C(O)CCCc1ccc([N+](=O)[O-])cn1	108 to 110
O=c1[nH]c2ncncc2s1	> 108
O=C(NC(=O)C(Br)CBr)Nc1ccc(Cl)c(Cl)c1 (stereo unspecified)	174 to 175
CCCCc1nn(-c2ccccc2C(F)(F)F)c(=O)n1Cc1ccc(-c2ccccc2S(=O)(=O)NC(=O)C(F)(F)F)cc1	125 to 127
CCOC(=O)c1oc2ccc([N+](=O)[O-])cc2c1OC	90 to 90.4
O=C1OCCC1NS(=O)(=O)c1ccc(Cl)cc1 (racemic)	113 to 115
CC(C)OCC(=O)C1CCC2C3CCC4CC(O)CCC4(C)C3C(=O)CC12C (stereo unspecified)	121 to 125
Cc1nc(-c2c(C)c(C#N)c3nc(C4CC4)oc3c2N2CC[C@H](N(C)C)C2)cs1	167 to 168
Nc1nc(N)c2c(ccc3c2ccn3Cc2ccc(OC(F)(F)F)cc2)n1	205 to 208
OC(CN1CCC(C(O)c2ccccc2)CC1)c1ccc(F)cc1 (stereo unspecified)	114 to 116
CSc1nc(N)nc(Cl)c1-c1ccc(Cl)cc1Cl	201 to 202
CCc1nn(CO)c(CC)c1Cc1cc(Cl)cc(Cl)c1	117 to 118
COc1cc2c(cc1Br)C1=C(c3cccs3)C3CSCCN(C(C)(C)C)C(=O)C3N1CC2 (stereo unspecified)	233 to 235
Cc1c(Nc2ccc(Br)cc2C(=O)O)cccc1C(F)(F)F	223 to 225
CC1(C)CCC(C)(C)c2cc(-c3ccc(O)c(-c4ccc(C(=O)O)cc4)c3)ccc21	264 to 267
Cc1noc2ncnc(NC3Cc4ccccc4C3)c12	208

SMILES	melting point [°C]
Cc1n[nH]c2cc(-c3nn(C(C)c4oc5ccccc5c(=O)c4-c4ccccc4)c4ncnc(N)c34)ccc12 (stereo unspecified)	249 to 252
Cc1nc2cc(Sc3cccc4cnccc34)c([N+](=O)[O-])cc2c(=O)[nH]1	> 270
CCOC(=O)COCCN(C)C(=O)c1c(-c2ccc(C(C)(C)C)cc2)n(C)n(-c2ccc(C#N)cc2)c1=O	192 to 194
O=C(c1ccc(C2=CCCc3ccccc32)cc1)N1Cc2cccn2Cc2ccccc21	81
Cc1ccnc2c1C(=O)c1ccccc1-2	130 to 131
COc1ccc2c(c1)C(=O)CC1C2C(O)CC2(C)C(O)CCC12 (stereo unspecified)	113 to 114
O=C1Nc2cccnc2N(C(=O)CN2CCC(CCCN3CCCCC3)CC2)c2ccccc21	202 to 203
O=C(O)c1cnc2c3cc(NC(=O)C4CCCCC4)ccc3ncn2c1=O	311 to 314
COc1nc2c(O)cccc2n1C	226 to 229
O=C1CC(c2ccccc2OCc2ccccc2)=Nc2ccc(N3CCOCC3)cc21	281 to 283
COC(=O)C1=C(C)NC(C)=C(C(=O)OCCCl)C1c1cccc(Br)n1 (stereo unspecified)	152 to 153
COc1ccc(-c2ccc3nc(N)c4ncn(CC(C)C)c4c3c2)c(OC)c1	223 to 227
CCOC(=O)c1cn2c(nc1=O)CCC2	59 to 60
Cc1ccc(S(=O)(=O)NCCCCOc2ccc(N)cc2)cc1	176 to 178
ClCc1ncc(-c2ccccc2)cc1Cl	74 to 75
CN1CCN=C1C(O)(c1ccccc1)c1ccccn1 (stereo unspecified)	105 to 108
Cc1ccc(NC(=O)N(C)Cc2cccc3c2CN(C2CCC(=O)NC2=O)C3=O)cc1C (stereo unspecified)	228 to 230
CCOC(=O)C(SC)c1ccccc1NC (stereo unspecified)	87.5 to 88.5
CC(C)C(=O)O[C@H]1[C@H](C)OC(=O)[C@@H](NC(=O)OC(C)(C)C)COC(=O)[C@@H]1CSc1ccccn1	54 to 58
Cc1ccc(S(=O)(=S)OCC2CC2)cc1 (stereo unspecified)	46 to 48
c1cc(N2CCCCC2)ccc1OC12CCC(CC1)CC2	66 to 68
O=C1c2ccccc2C(=O)N1CCCN1C(=O)C2(COc3cc4c(cc32)CCO4)c2ccccc21 (stereo unspecified)	214 to 217
CCCCc1nnc2c(NC3CCCC3)nc3ccccc3n12	195 to 197
C[C@@H](N)C(=O)N(O)C(=O)OC(C)(C)C	115 to 117
CC(C)(O)c1ccc(-c2cnc3[nH]c(=O)n(CC4CCOCC4)c3n2)cc1	212 to 214
CC(C)(C)CC(C)(C)NC(=O)CCON(Cc1ccccc1)Cc1ccccc1	96 to 98

SMILES	melting point [°C]
C=C1CCc2c(c3ccccc3n2C)C1=O	127 to 129
NS(=O)(=O)c1ccc([C@H]2[C@H](C(=O)Nc3ccc(C(F)(F)F)cc3)C23CCCC3)cc1 (relative stereo)	234 to 236
COc1cc2c(c3c1OC(C)(C)C3)C(c1cccc(NC(=O)C3CCC(=O)N3)c1)=NC(C)(C)C2 (stereo unspecified)	145 to 147
CCOC(=O)c1cc(C)nn1C	150 to 154
Cc1cc2c(c3c1NC(=O)C(C)(C)C3)OC(CBr)C2C (stereo unspecified)	192 to 193
Cc1oc(-c2ccco2)nc1COc1ccc(COc2nn(-c3ccccc3)cc2/C=C/C(=O)O)cc1	144 to 145
COC(=O)C#CC(=O)c1ccc(SC)cc1	74 to 76
COc1ccc(CC(CC(=O)O)CC(=O)O)cc1	109 to 110
COC(Cc1ccc(OCCc2nc(C(C)(C)C)oc2C)c2ccsc12)C(=O)O (stereo unspecified)	163 to 165
Cc1ccc(CSc2nnc(-c3ccc4c(c3)CCO4)o2)cc1	190 to 191
CC(=O)c1c(-c2ccc(F)cc2)[nH]c(-c2ccncc2)c1C	202 to 203
C=CCOC(=O)c1ccc(N)cc1O	58 to 59
CCN1C(=O)Cc2cc(C(=O)c3ccccc3)ccc21	134 to 136
O=C(Cc1ccc(Cl)c(Cl)c1)c1ccc(Cl)cc1	99 to 103
O=C(Nc1ccc(Cl)cc1)NS(=O)(=O)c1ccc2c(c1)CCO2	190 to 194
Cc1ccc(NCCCNc2ncc(Cc3ccc(C)nc3)c(=O)[nH]2)nc1	164 to 166
O=[N+]([O-])c1cnn2c1-c1ccccc1NC2	156 to 157
CCCCc1nc(NC(=N)N)sc1-c1cccc([N+](=O)[O-])c1	140 to 142
N=C(N)NN=Cc1cccc(Cl)c1I	231 to 232
COc1ccccc1/C=C/CN1CCC(=O)C(C(c2ccccc2)c2ccccc2)C1 (stereo unspecified)	117 to 118
CC(=O)OC(OC(C)=O)c1cc(Br)c(C(OC(C)=O)OC(C)=O)cc1Br	200 to 210
O=C(O)c1cc2c(c(C(=O)O)c1)NCCS2	> 300
O=C(Nc1ccc(Cl)cc1)c1c(O)c2cccnc2n(-c2ccccc2)c1=O	281 to 286
